Experimental findings from ChEMBL document CHEMBL1201862, “PubChem BioAssay data set” (2004) are described below.

The structures appear in SMILES notation. Active and inactive are the calls of the source.

Test [1] is described as follows: cytotoxicity toward NIH3T3 fibroblasts, dose response, counter-screen, cell-based, ATP luminescence, mouse fibroblasts (AID 2010).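 Further: cells exposed to compound for about 90 hours before reading.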 The test is classed as functional.
The target of test [2] is T1, DNA repair protein RAD52 homolog (Homo sapiens, UniProt P43351).
T1 sequence (P43351 whole entry): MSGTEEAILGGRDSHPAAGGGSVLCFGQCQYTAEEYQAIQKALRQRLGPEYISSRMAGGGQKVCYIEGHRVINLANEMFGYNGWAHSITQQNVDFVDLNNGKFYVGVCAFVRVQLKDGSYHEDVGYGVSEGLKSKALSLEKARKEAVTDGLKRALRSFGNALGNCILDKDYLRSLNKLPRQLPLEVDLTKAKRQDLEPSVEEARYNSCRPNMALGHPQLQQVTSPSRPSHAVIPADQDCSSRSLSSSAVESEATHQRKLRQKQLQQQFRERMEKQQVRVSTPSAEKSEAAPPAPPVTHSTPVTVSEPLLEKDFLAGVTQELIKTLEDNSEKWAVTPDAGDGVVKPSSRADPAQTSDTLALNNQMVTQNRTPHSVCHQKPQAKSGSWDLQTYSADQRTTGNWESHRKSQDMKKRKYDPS
The test is classed as functional, biochemical.

Test [3] can be described thus: inhibitors of intracellular T. cruzi replication, confirmation, NIH3T3 host cells, beta-gal luminescence (AID 2044).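 Further: intracellular parasites grown in NIH/3T3 mouse fibroblasts as host cells; luminescent beta-galactosidase reporter signal from transgenic T. cruzi replicating inside host cells; inhibitors lower the luminescence signal.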 The test is classed as functional, cell-based.
Test [4] relates to HEK293. In words: cells. In kind it is functional, cell-based. Conditions: Homo sapiens.
In test [5] the test system is HEK293. The test can be described thus: cells. In kind it is functional, cell-based. Conditions: Homo sapiens. The source holds these as a separate data set.
Test [6] has as its system HEK293. In words: NOD1 signaling inhibitors, primary screen, cell-based, luminescence, uHTS (AID 1578). The test is classed as functional. Conditions: Homo sapiens.
The test system of test [7] is HEK293. In words: NOD2 signaling inhibitors in MDP-stimulated cells, cell-based, uHTS, luminescence (AID 2001). Conditions: Homo sapiens. In kind it is functional.
Test [8] addresses Nonstructural protein 1 (Influenza A virus, UniProt Q194T2). In kind it is functional, Influenza A virus (A/California/07/2009(H1N1)).
Test [9] can be described thus: off-target signal loss in HeLa-CEM21 co-culture – HeLa F-luc CTL cells, cherry-picked, counter-screen for HIV-1 Env fusion inhibitor project, dose response (AID 652040).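 Further: potency for signal decrease marking cytotoxic or nonspecific inhibition.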 In kind it is functional, cell-based.
Test [10] is described as follows: inhibitors of clade B AD8 Env fusion, dose response, cell-based, cherry-pick (AID 652062).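 Further: luciferase signal from cell-cell fusion driven by HIV-1 clade B AD8 Env; potency is for inhibitors of fusion seen as a drop in luminescence.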 In kind it is functional.
Test [11] in a line: ZM109 Env clade C HIV-1 fusion inhibitors, dose response, HeLa effector, CEM target cells, luciferase, cherry-pick (AID 652058). In kind it is functional, cell-based.
The nature of test [12]: inhibitors of HIV Env-driven cell fusion, dose response, cherry-pick (AID 652057). In kind it is functional, cell-based.
The test system of test [13] is H9c2. In words: cells. The test is classed as functional, cell-based. Conditions: Rattus norvegicus, H9c2, Myocardium.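 Further: confirmatory concentration-response retest of ultra-high-throughput screening hits for modulation of myocardial damage; cell death induced by hydrogen peroxide oxidative stress; compound pretreatment for 60 min then peroxide exposure for 2 h; potency is for protecting the cells against peroxide damage rather than for killing them.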
For test [14], the target named is Eukaryotic translation initiation factor 4E (Mus musculus, UniProt P63073). In words: eIF4E–eIF4G protein interaction inhibitors, dose response, biochemical, TR-FRET (AID 855).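 Further: potency for disrupting eIF4E binding to eIF4GI seen as loss of FRET.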 The test is classed as functional.
Test [15] in a line: cytotoxicity in HEK-293T cells, dose response, cytotoxicity control for BCR NF-kB inhibitor project, luminescence, B-cell screen hits (AID 489021).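 Further: HEK-293T cells carrying an NF-kB luciferase reporter; cells exposed to compound for about 14 hours before viability readout.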 The test is classed as functional, cell-based.
In test [16] the target is T2, Short transient receptor potential channel 4 (Mus musculus, UniProt Q9QUQ5).
T2 sequence (Q9QUQ5 whole entry): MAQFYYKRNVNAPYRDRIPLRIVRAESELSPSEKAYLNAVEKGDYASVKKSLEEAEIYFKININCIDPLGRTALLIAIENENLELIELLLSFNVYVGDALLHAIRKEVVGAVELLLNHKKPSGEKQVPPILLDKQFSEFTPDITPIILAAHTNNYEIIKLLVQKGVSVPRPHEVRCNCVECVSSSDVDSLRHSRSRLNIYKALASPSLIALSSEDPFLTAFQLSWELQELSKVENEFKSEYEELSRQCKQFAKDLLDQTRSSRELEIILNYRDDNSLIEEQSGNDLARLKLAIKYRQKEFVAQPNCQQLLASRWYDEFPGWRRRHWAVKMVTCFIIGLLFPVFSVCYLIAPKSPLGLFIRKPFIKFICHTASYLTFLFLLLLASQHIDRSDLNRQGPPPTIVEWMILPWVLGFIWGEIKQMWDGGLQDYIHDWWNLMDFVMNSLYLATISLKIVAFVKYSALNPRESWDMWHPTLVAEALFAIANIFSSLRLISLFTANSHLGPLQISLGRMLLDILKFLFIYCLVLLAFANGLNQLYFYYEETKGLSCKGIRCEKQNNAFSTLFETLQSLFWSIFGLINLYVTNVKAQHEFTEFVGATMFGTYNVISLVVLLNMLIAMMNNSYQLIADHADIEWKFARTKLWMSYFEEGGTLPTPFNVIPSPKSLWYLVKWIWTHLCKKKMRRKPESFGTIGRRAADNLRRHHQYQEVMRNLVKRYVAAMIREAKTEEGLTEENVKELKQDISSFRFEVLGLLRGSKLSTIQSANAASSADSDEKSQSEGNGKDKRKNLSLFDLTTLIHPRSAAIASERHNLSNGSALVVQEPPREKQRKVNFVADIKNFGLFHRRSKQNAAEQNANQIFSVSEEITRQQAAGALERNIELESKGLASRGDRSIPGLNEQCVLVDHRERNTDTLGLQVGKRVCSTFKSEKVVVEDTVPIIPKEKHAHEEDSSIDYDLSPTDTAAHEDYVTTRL
In words: mouse TRPC4 channel inhibitors, dose response, cell-based, HEK293 TRPC4/mu-opioid, Fluo-4 calcium (AID 434942).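 Further: potency of inhibitors blocking the TRPC4 calcium response.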 In kind it is functional.

In test [17] the target is T3, Rac GTPase-activating protein 1 (Homo sapiens, UniProt Q9H0H5).
T3 sequence (Q9H0H5 whole entry): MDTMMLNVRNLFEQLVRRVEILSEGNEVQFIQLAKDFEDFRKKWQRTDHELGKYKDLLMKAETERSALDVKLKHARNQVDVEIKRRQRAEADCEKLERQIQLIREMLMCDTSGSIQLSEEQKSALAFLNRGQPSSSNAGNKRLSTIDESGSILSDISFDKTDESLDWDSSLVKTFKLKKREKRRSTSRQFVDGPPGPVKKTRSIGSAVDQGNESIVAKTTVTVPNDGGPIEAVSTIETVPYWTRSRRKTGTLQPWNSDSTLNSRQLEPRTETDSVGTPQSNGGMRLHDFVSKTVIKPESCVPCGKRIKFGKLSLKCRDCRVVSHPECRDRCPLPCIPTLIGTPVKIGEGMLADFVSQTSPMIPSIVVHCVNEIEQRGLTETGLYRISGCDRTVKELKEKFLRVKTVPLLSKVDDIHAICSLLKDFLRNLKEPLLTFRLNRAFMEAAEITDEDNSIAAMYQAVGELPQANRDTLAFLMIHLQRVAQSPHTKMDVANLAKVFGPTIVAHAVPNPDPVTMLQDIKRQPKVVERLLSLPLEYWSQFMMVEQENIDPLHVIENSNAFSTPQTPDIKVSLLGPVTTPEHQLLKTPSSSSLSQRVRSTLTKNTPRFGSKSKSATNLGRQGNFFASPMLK
In words: MgcRacGAP GTPase-activating activity inhibitors, confirmation, biochemical, ADP Hunter fluorescence, primary and confirmatory (AID 624330). The test is classed as functional.

Test [18] concerns the target Genome polyprotein (dengue virus type 2, UniProt P29990). In words: Dengue-2 NS5 methyltransferase inhibitors, primary screen, biochemical, confirmation dose response (AID 588689). In kind it is functional.
Test [19] concerns the target Paired box protein Pax-8 (Homo sapiens, UniProt Q06710). The test can be described thus: inhibitors of PAX8-driven TPO luciferase reporter, dose response, RMG-I cells, cherry-pick (AID 687027).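 Further: luciferase reporter driven by Pax8 target thyroperoxidase promoter measured by SteadyGlo luminescence.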 In kind it is functional, cell-based.
A short description of test [20]: inhibitors of SNCA 5'UTR-driven reporter translation, confirmation, H4 neuroglioma cells, luminescence (AID 1988). The test is classed as functional, cell-based.
Test [21] is described as follows: inhibitors of firefly luciferase expression or activity, dose response, H4 neuroglioma cells, luminescence (AID 1990). The test is classed as functional, cell-based.
A short description of test [22]: Luminescence Cell-Based Dose Response HTS to Identify Inhibitors of 5'UTR Stem-Loop Driven Prion Protein mRNA Translation in H4 Neuroglioblastoma Cells. [Related pubchem assays: 1827 (Project Summary), 1813 (Primary HTS)]. In kind it is functional.
Test [23] is described as follows: C. albicans growth with fluconazole, confirmation, fluorescence, retest (AID 2467). In kind it is functional, cell-based.
Test [24] has as its system INS1. In words: beta cell apoptosis inhibitors, cytokine rescue, dose response, luminescence, retest (AID 449756).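 Further: cell death triggered by IL-1 beta plus TNF-alpha plus IFN-gamma mixture; protective hits raise ATP signal compared with cytokine alone wells.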 In kind it is functional, cell-based. Conditions: Rattus norvegicus.
Test [25] can be described thus: NIH-3T3 fibroblast cytotoxicity, dose response, cytotoxicity control, cell-based, fluorescence, Alamar Blue, secondary assay (AID 2327).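 Further: NIH-3T3 mouse fibroblasts cultured with fluconazole at 8 µg/mL.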 In kind it is functional.

Chain of Eukaryotic translation initiation factor 4E (P63073 whole entry): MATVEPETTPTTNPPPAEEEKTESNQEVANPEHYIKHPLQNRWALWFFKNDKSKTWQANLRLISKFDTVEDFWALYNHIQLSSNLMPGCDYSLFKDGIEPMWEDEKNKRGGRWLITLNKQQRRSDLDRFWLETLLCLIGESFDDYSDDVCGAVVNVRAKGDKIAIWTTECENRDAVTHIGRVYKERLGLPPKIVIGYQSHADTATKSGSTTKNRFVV
Chain of Nonstructural protein 1 (Q194T2 whole entry, the tested form may be a part): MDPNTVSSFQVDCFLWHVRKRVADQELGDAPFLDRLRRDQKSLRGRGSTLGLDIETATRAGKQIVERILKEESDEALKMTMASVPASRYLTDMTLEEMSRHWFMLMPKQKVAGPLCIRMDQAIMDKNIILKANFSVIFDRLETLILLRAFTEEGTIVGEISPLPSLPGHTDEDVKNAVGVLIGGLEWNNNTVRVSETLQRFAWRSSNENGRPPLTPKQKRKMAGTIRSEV
Chain of Paired box protein Pax-8 (Q06710 whole entry): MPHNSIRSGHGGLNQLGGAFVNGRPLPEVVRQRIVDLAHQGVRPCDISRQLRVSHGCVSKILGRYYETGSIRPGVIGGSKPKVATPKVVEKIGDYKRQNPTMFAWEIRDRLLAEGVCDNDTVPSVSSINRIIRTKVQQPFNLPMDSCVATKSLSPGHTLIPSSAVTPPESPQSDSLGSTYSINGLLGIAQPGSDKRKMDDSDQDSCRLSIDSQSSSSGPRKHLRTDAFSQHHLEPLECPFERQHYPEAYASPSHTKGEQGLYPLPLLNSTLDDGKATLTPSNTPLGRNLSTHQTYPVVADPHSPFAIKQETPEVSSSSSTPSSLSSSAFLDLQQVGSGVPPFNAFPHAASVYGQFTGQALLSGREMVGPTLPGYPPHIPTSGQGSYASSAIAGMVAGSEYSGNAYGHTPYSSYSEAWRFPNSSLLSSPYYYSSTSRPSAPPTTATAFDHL
Chain of Genome polyprotein (P29990 2492-3391 limits assumed): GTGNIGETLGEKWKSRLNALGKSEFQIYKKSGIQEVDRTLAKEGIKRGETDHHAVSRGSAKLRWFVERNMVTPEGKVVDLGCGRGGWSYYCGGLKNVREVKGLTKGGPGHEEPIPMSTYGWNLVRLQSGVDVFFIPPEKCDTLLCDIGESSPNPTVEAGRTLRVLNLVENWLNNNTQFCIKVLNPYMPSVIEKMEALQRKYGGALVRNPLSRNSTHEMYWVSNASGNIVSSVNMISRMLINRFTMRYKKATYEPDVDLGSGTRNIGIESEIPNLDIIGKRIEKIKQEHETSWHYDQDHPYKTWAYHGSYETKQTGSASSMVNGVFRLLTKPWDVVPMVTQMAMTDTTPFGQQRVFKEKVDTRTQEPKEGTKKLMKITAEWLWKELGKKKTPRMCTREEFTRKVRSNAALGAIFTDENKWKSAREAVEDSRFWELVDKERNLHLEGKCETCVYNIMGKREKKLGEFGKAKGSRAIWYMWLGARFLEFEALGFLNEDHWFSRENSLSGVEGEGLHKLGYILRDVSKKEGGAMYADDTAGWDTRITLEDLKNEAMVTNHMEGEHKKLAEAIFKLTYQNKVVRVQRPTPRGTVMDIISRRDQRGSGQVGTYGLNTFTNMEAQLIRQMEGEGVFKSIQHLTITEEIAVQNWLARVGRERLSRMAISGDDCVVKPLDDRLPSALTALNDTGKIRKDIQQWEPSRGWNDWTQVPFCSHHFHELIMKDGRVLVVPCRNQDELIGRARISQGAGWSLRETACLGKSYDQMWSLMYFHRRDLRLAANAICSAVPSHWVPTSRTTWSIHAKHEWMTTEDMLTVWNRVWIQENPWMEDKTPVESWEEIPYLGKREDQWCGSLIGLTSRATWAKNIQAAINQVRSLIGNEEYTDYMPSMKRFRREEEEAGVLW

With `CCOC(=O)c1c(C)n(CC(O)CN(C)C)c2cc(Br)c(OC)cc12` (stereo not drawn), the values for the half-maximal effective concentration (EC50) in test [1] and in [3] were > 60 µM (not active) and 0.685 µM (active), respectively. Further, in test [2], the AC50 is 10.1 µM (active).
`Oc1cc(-c2ccccc2)nc2cc(-c3ccc(Br)cc3)nn12`: the IC50 in test [4] was 16.9 µM (active); in test [5], > 20 µM (inactive); in test [7] it was 5.12 µM (inactive). The EC50 in test [6] was 10.8 µM (active).
Take `O=C(N/N=C/c1ccc(O)cc1O)c1ccncc1`: the IC50 in [8] was 5.88 µM (active).
For `CCN(C[C@H]1N[C@@](C)(C(=O)OC)[C@H]2C(=O)N(Cc3ccccc3)C(=O)[C@@H]12)C(=O)c1ccc(C(C)(C)C)cc1`, the AC50 in [9] is 10.2 µM (active); in test [10], 16.8 µM (active); in test [11], 4.92 µM (active); in test [12], 5.34 µM (active). The IC50 in [13] is > 79 µM (inactive).
Take `C=CCn1c(S)nnc1-c1ccco1`: in [14], the IC50 was > 64 µM (inactive).
As to `CCn1c(=O)cc(OCC(=O)NCc2ccc(C)o2)c2ccccc21`, the IC50 in [15] was > 80 µM (inactive).
Take `CCOc1ccccc1CN1CCN(Cc2cccc3nonc23)CC1CCO` (stereo not drawn): in test [16], the EC50 was 5.31 µM (active).
For `Oc1cc(O)cc(-c2cc3ccc(O)cc3o2)c1` [MORACIN M], the results for the IC50 in [15] and in test [17] were > 80 µM (inactive) and 23 µM (active), respectively.
Take `CCCCOc1ccc(Nc2cc(Cl)ccc2C(=O)O)cn1`: the half-inhibitory concentration (IC50) in test [18] is 59.8 µM (active). Also, the EC50 in test [16] was 10.6 µM (active).
For the molecule `O=C(NCCC1CCCCN1S(=O)(=O)c1ccc(Cl)cc1)C(=O)NCc1ccncc1` (stereo not drawn), the half-maximal activity concentration (AC50) in test [19] was 3.27 µM (active). Further, the figures for the EC50 in [20], in test [21] and in [22] were 9.38 µM (active), 15.5 µM (active) and 20.8 µM (active), respectively. Besides, the IC50 in test [15] was > 80 µM (inactive).
With `N#CC1=C(N)Oc2c(ccc3cccnc23)C1c1cccnc1` (stereo not drawn), the 50% effective concentration (EC50) in test [23] is 1.18 µM (active); in test [25] it was 22.1 µM (active). In addition, the concentration at half-maximal activity (AC50) in test [24] is 3.17 µM (active). In addition, the IC50 in test [8] was 56.6 µM (active).
Take `Cc1cc(C)cc(NC(=N)Nc2nc(C)cc(C)n2)c1`: in test [16], the EC50 is 2.99 µM (active).
For the molecule `COc1ccc(Cl)c2sc(N(CCN(C)C)C(=O)c3ccc4c(c3)OCCO4)nc12`, the AC50 in [2] is 9.01 µM (active).
Consider `Cc1ccc(C)c(NC(S)=NCCN(C2CCCCC2)C2CCCC2)c1`, for which the IC50 in [14] was 50 µM (inactive).
Turning to `C=CCN1C(=O)CS/C1=N\c1cccc(O)c1`, in [14], the IC50 is > 64 µM (inactive).
`O=C(C[N+]1(CC#Cc2ccccc2)CCCCC1)c1ccc(Cl)cc1`: in test [16], the concentration for a half-maximal effect (EC50) was 7.5 µM (active).
Turning to `CN(C)CCCNc1nc2cc(-c3cnn(Cc4ccccc4)c3)sc2c(=O)n1C`, the concentration at half-maximal activity (AC50) in test [2] was 19.8 µM (active).
`O=C(N/N=C/c1ccccc1O)c1ccncc1` [SALINAZID]: the half-maximal inhibitory concentration (IC50) in test [8] is 7.54 µM (active).
Turning to `Cc1ccc(C)c(OCc2ccc(C(=O)NN)o2)c1`, the IC50 in test [15] was > 80 µM (inactive).
Consider `C/C(CC(=O)N(C(C)C)C(C)C)=N\NC(=O)COc1ccc(Cl)cc1Cl`, for which, in [16], the concentration for a half-maximal effect (EC50) was 13.3 µM (active).
